Paper PMC7730235, “Discovery of a Novel Class of Covalent Dual Inhibitors Targeting the Protein Kinases BMX and BTK” (International Journal of Molecular Sciences, 2020)

Columns and labels:
BMX = target: T1, BMX (Homo sapiens, UniProt P51813); experiment: Radiometric kinase assay (Reaction Biology HotSpot); type: biochemical; conditions: radiometric HotSpot, five-dose singlicate, [ATP] = 10 μM
T1 construct: purchased Reaction Biology Corporation
T1 sequence (P51813 1-675): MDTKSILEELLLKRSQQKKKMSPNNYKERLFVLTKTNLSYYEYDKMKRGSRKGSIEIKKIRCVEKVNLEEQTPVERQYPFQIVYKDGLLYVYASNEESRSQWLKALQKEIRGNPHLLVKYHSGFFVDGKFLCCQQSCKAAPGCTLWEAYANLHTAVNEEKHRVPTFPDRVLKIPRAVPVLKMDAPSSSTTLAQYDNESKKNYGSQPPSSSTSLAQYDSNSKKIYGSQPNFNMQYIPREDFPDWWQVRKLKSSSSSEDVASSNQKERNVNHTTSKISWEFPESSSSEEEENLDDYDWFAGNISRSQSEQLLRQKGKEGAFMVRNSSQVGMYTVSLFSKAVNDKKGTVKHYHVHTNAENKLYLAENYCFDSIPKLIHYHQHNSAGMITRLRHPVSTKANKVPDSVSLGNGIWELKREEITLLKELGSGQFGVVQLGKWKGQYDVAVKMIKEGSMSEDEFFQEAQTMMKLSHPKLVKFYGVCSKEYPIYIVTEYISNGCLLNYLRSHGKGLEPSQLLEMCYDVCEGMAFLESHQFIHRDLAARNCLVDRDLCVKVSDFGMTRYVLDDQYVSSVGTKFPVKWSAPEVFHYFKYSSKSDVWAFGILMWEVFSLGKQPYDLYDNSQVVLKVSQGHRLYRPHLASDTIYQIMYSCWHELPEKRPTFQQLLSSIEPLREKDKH
Description: (§1) If not mentioned differently, in vitro profiling of compounds was performed at Reaction Biology Corporation using the HotSpot™ assay platform.

TXK = target: T2, TXK (Homo sapiens, UniProt P42681); experiment: as above; type: biochemical; conditions: radiometric HotSpot, five-dose singlicate, [ATP] = 10 μM
T2 construct: purchased Reaction Biology Corporation
T2 sequence (P42681 1-527): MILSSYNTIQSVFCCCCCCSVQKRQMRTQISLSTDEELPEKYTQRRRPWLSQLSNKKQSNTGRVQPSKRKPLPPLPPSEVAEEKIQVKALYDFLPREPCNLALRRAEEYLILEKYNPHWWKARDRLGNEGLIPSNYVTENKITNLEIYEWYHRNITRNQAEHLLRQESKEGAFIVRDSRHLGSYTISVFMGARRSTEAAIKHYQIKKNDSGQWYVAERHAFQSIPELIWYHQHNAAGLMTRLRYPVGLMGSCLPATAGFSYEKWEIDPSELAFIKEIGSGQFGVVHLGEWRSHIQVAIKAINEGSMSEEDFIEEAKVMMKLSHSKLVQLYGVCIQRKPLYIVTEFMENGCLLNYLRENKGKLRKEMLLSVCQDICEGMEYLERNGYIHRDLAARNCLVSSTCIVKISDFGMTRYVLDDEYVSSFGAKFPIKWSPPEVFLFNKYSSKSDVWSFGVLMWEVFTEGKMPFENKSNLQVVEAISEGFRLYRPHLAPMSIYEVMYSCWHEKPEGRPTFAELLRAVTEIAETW
Description: as §1

[1] = target: T3, Full length BMX (C-terminal NanoLuc fusion) (Homo sapiens, UniProt P51813); experiment: Cellular NanoBRET target engagement assay in HEK293T cells; type: cell-based; conditions: 0.5 µM Tracer K4, 2 h incubation
T3 construct: Full length BMX and BTK was cloned into pFC32K; expressed in transfected cells; host or cells: HEK293T
T3 sequence (P51813 1-675): T1 sequence (P51813 1-675)
Description: (§2) Full length BMX and BTK was cloned into pFC32K (Promega, Madison, WI, USA) for expression of a C-terminal NanoLuc fusion. The plasmids were transfected into HEK293T cells cultured in DMEM (Gibco, Waltham, MA, USA) supplemented with 10% fetal bovine serum (Gibco, Waltham, MA, USA) and Penicillin/Streptamycin (Gibco, Waltham, MA, USA). NanoBRET assays were performed using the protocol published previously. Briefly, after transfection and 20 h incubation cells were harvested and subsequently resuspended in OptiMEM (Gibco, Waltham, MA, USA). Cells were aliquoted onto […] (Greiner, Kremsmünster, Austria), and inhibitors as well as 0.5 µM Tracer K4 (Promega) for BMX or 0.5 µM Tracer K5 (Promega, Madison, WI, USA) for BTK were added using an ECHO acoustic dispenser. The plates were incubated at 37 °C with 5% CO2 for 2 h prior to the addition of both NanoBRET NanoGlo substrate (Promega, Madison, WI, USA) and extracellular NanoLuc inhibitor. BRET luminescence (450 nm for donor emission and 610 nm for BRET signal) was measured using PHERAstar FSX plate reader (BMG Labtech, Ortenberg, Germany). Milli-BRET units (mBU) were calculated as a ratio between BRET signal and the overall measured luminescence. A dose–response fitting was applied and IC50 values were calculated using the Prism software. […] Experiments were performed as tripicates and repeated at least three times.

[2] = target: T4, Full length BTK (C-terminal NanoLuc fusion) (Homo sapiens, UniProt Q06187); experiment: as above; type: cell-based; conditions: 0.5 µM Tracer K5, 2 h incubation
T4 construct: Full length BMX and BTK was cloned into pFC32K; expressed in transfected cells; host or cells: HEK293T
T4 sequence (Q06187 whole entry, the tested form may be a part): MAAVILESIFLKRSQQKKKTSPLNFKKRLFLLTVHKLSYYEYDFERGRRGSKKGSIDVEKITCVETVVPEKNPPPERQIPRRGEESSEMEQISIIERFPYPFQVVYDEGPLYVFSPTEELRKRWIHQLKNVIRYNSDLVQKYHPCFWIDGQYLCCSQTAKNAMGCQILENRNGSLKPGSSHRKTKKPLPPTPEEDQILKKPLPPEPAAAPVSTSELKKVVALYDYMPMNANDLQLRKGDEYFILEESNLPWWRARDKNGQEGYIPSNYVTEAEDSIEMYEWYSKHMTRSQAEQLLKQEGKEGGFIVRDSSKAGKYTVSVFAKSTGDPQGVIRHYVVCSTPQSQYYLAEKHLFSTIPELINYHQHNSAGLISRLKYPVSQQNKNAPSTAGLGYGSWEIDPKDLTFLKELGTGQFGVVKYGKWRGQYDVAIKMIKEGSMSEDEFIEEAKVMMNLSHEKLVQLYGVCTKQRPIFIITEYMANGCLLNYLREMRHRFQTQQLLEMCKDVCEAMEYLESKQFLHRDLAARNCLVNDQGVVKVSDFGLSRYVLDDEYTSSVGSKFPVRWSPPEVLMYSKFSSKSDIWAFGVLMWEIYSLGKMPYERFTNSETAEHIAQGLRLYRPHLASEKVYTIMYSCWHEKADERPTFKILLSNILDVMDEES
Description: as §2

kinase domain of BMX [3] = target: T5, kinase domain of BMX (Homo sapiens, UniProt P51813); experiment: Mass spectrometric investigation of covalent binding to BMX (ESI-TOF); conditions: 4 °C; for covalent labeling of BMX (in words): 1.5-fold molar excess, complete labeling refers to 30 min
T5 construct: The kinase domains of JAK3 and BMX at 2 μM
Description: The kinase domain of BMX was diluted to 0.05 mM with buffer containing 20 mM Tris pH 8.0, 200 mM NaCl, 0.5 mM TCEP (pH 7.0) and was subsequently mixed with 0.075 mM inhibitors (ratio of protein to inhibitor of 1:1.5). The mixture was incubated at 4°C. The samples were taken at different time points, the reaction stopped by diluting the sample with a 200-fold excess of 1% formic acid. The denatured protein and the adducts were assessed using electrospray time-of-flight (ESI-TOF) mass spectrometry.

JAK3 = target: T6, JAK3 (Homo sapiens, UniProt P52333); experiment: Radiometric kinase assay (Reaction Biology HotSpot); type: biochemical; conditions: radiometric HotSpot, five-dose singlicate, [ATP] = 10 μM
T6 construct: purchased Reaction Biology Corporation
T6 sequence (P52333 1-1124): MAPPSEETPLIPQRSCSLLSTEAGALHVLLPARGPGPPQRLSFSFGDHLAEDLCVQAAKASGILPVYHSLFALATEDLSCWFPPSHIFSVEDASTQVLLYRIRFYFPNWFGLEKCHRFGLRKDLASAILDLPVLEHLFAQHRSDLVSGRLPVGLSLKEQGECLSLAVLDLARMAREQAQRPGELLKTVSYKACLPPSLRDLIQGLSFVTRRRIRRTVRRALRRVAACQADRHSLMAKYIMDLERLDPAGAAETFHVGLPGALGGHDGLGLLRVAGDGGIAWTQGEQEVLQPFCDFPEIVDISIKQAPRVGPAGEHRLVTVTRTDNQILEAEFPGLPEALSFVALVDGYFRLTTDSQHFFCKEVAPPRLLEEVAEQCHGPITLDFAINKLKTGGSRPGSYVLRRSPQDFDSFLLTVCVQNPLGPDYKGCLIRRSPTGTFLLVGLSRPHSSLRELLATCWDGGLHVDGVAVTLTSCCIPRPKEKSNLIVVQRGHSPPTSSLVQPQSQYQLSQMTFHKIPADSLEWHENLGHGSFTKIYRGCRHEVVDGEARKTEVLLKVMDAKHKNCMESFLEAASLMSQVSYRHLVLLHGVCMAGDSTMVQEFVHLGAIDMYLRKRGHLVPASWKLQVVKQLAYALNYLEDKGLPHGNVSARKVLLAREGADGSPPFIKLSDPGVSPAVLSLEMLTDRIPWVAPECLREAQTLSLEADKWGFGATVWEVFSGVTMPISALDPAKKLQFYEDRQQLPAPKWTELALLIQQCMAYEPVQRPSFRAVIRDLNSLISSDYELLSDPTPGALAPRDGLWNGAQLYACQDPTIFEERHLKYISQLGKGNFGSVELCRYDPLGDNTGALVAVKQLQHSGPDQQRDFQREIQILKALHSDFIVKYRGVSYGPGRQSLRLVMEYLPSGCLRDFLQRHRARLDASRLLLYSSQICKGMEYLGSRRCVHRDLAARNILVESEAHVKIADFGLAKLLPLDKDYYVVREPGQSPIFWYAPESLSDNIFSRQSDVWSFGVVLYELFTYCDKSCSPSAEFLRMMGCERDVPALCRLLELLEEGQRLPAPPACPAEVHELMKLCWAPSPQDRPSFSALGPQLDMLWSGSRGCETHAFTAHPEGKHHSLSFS
Description: as §1

kinase domain of BMX [4] = target: T5, kinase domain of BMX; experiment: Thermal shift (ΔTm) assay; type: binding; conditions: 2 μM kinase domain, 10 μM inhibitor; mean ± SD of at least three measurements
Description: (§3) The kinase domains of JAK3 and BMX at 2 μM were mixed with the inhibitors at 10 μM, and subsequently SyPRO orange dye (Invitrogen Carlsbad, CA, USA) was added. The thermal shift assay and data evaluation were performed as described previously using a Real-Time PCR Mx3005p machine (Stratagene, La Jolla, CA, USA).

kinase domain of JAK3 = target: T7, kinase domain of JAK3 (Homo sapiens, UniProt P52333); experiment: Thermal shift (ΔTm) assay; type: binding; conditions: 2 μM kinase domain, 10 μM inhibitor; mean ± SD of at least three measurements
T7 construct: The kinase domains of JAK3 and BMX at 2 μM; made in house
Description: as §3

[5] = 1.5-fold molar excess of inhibitor, 30 min
[6] = 1.5-fold molar excess of inhibitor, 60 min
[7] = 1.5-fold molar excess of inhibitor, 120 min
[8] = 1.5-fold molar excess of inhibitor, 240 min

| IC50 (BMX) | IC50 (TXK) | IC50 [1] | IC50 [2] | native (unmodified) BMX fraction, 30 min (kinase domain of BMX [3]; [5]) | native (unmodified) BMX fraction, 60 min (kinase domain of BMX [3]; [6]) | native (unmodified) BMX fraction, 120 min (kinase domain of BMX [3]; [7]) | native (unmodified) BMX fraction, 240 min (kinase domain of BMX [3]; [8]) | covalent labeling of BMX (in words) (kinase domain of BMX [3]) | IC50 (JAK3) | ΔTm at 10 µM (kinase domain of BMX [4]) | ΔTm at 10 µM (kinase domain of JAK3) | BMX covalent adduct fraction, 30 min (kinase domain of BMX [3]; [5]) | BMX covalent adduct fraction, 60 min (kinase domain of BMX [3]; [6]) | BMX covalent adduct fraction, 120 min (kinase domain of BMX [3]; [7]) | BMX covalent adduct fraction, 240 min (kinase domain of BMX [3]; [8]) | SMILES |
| --- | --- | --- | --- | --- | --- | --- | --- | --- | --- | --- | --- | --- | --- | --- | --- | --- |
| > 10 µM | > 10 µM | > 10 µM | 3.71 ± 1.2 µM | 100% | 100% | 100% | 100% | no modification was detectable |  |  |  |  |  |  |  | CCC(=O)Nc1cccc(-c2c[nH]c3ncc(C(=O)NC4CCCC4)cc23)c1 [Compound 11b, N-cyclopentyl-3-(3-propionamidophenyl)-1H-pyrrolo[2,3-b]pyridine-5-carboxamide] |
| 0.006 µM |  | 0.003 ± 0.001 µM | 0.013 ± 0.002 µM |  |  | 1% |  | complete labeling | > 10 µM | 11.88 ± 0.07 °C | 11.9 ± 0.23 °C | 100% | 100% | 99% | 100% | C=CC(=O)Nc1cccc(-c2c[nH]c3ncc(NC(=O)CC4CCCC4)cc23)c1 [Compound 12g, N-(3-(5-(2-cyclopentylacetamido)-1H-pyrrolo[2,3-b]pyridin-3-yl)phenyl)acrylamide] |
